Results on 2 compounds are retold here after patent US20080227635A1, “Dicyano Alkanoic Acid Amides for Combating Animal Pests” (BASF Aktiengesellschaft, priority 2005, published 2008).

Holding throughout (type): in vivo
The test system of assay [1] is Boll weevil (Anthonomus grandis). Nature of the assay: Activity against Boll weevil (eggs sprayed in microtiterplates). The conditions noted are these: 2500 ppm solution in 1:3 DMSO:water, eggs sprayed with 20 μl, 3 to 5 days, untreated controls 0%. Here is the method:
1. Activity against Boll weevil (Anthonomus grandis)
The active compounds were formulated as a 2500 ppm solution in 1:3 DMSO:water. 10 to 15 eggs were placed into microtiterplates filled with 2% agar-agar in water and 300 ppm formaline. The eggs were sprayed with 20 μl of the test solution, the plates were sealed with pierced foils and kept at 24-26° C. and 75-85% humidity with a day/night cycle for 3 to 5 days. Mortality was assessed on the basis of the remaining unhatched eggs or larvae on the agar surface and/or quantity and depth of the digging channels caused by the hatched larvae. Tests were replicated 2 times.

Assay [2] concerns Vetch aphid (Megoura viciae). Briefly: Activity against Vetch aphid (sprayed bean leaf disks). The conditions noted are these: foliar, 144 h, 2500 ppm solution in 1:3 DMSO:water, leaf disks sprayed with 2.5 μl, adult aphids, 6 days, untreated controls 0%. How it is done:
4. Activity against Vetch aphid (Megoura viciae)
The active compounds were formulated as a 2500 ppm solution in 1:3 DMSO:water. Bean leaf disks were placed into microtiterplates filled with 0.8% agar-agar and 2.5 ppm OPUS™. The leaf disks were sprayed with 2.5 μl of the test solution and 5 to 8 adult aphids were placed into the microtiterplates which were then closed and kept at 22-24° C. and 35-45% under fluorescent light for 6 days. Mortality was assessed on the basis of vital, reproduced aphids. Tests were replicated 2 times.

The test system of assay [3] is yellowfever mosquito (Aedes aegyptii). Briefly: Activity via glass contact (treated glass vials). The conditions noted are these: 10 ppm in acetone, 0.5 ml per glass vial, 22° C., untreated controls 0%. The text has this:
9. Activity against Argentine ant (Linepithema humile), harvester ant (Pogonomyrmex californicus), acrobat ant (Crematogaster spp.), carpenter ant (Camponotus floridanus), fire ant (Solenopsis invicta), house fly (Musca domestica), stable fly (Stomoxys calcitrans), flesh fly (Sarcophaga sp.), yellowfever mosquito (Aedes aegyptii), house mosquito (Culex quinquefasciatus), malaria mosquito (Anopheles albimanus), German cockroach (Blattella Germanica), cat flea (Ctenocephalides felis), and brown dog tick (Rhipicephalus sanguineus) via glass contact
Glass vials were treated with 0.5 ml of a solution of 10 ppm of the active ingredient in acetone and allowed to dry. Insects or ticks were placed into each vial together with some food and moisture supply.

Bounds are passed on as bounds.

Take `CN(C(=O)CC(C#N)(C#N)CCC(F)(F)F)C(C)(C)C` [I-1, 3,3-dicyano-6,6,6-trifluoro-hexanoic acid tert-butyl-methyl-amide]: the mortality at 2500 ppm in assay [1] and in assay [2] was greater than 75% each time.
`CN(C(=O)CC(C#N)(C#N)CCC(F)(F)F)C(C)(C)C#N` [I-2, 3,3-dicyano-6,6,6-trifluoro-hexanoic acid (cyano-dimethyl-methyl)-methyl-amide] gave a mortality at 10 ppm in assay [3] greater than 75%.

The mortality is the percentage killed.
